Test results from patent publication US4740521A, “Saudin, a novel hypoglycemic agent” (Purdue Research Foundation, priority 1986, dated 1988).

Experiments:
[1] = tested on: animals; assay: hypoglycemic effect in animals on injection (general statement); format: in vivo; conditions: read-out: dose producing a significant hypoglycemic effect, by injection, "above about"
Procedure: For the control of hyperglycemia, a dose between about 25 and about 110 mg/kg is effective, when administered at intervals of about 2 to about 12 hours in a tissue-compatible liquid. Normal saline solution is a suitable solvent diluent, or alternatively aqueous carboxymethylcellulose.

[2] = tested on: plasma glucose level of non-fasted rats; assay: plasma glucose level of non-fasted rats after I.P. injection (Table 1); format: in vivo, rats (male albino); conditions: 40 mg/kg I.P.
Procedure: (§1) Male albino rats weighing from 100-150 gm were divided into groups each comprised from 7-8 rats. […] Non-fasted and fasted rats were either non-alloxanized or injected I.V. with alloxan at a dose of 40 mg/kg two days before administration of saudin. Saudin was injected I.P. in the experiment groups in a suspension form containing 0.5% carboxymethylcellulose (CMC). Control groups received I.P. injection of 0.5% CMD at a dose not exceeding 1 ml/100 gm (Maximum volume used to suspend saudin). Blood samples were taken and the plasma glucose level was estimated as indicated in the results. The method used for glucose estimation was similar to that used by Free et al., Advances in Clinical Chemistry, E. H. Sobotaka and C. P. Steward (eds.), Academic Press, New York, 6, p. 67 (1973).
non-fasted rats in response to I.P. injection of
40 mg/kg. Blood samples were taken at 1 h intervals
in heparinized tubes and plasma was separated for […]

[3] = in vivo; conditions: mouse, ip
Text: When suspended in carboxymethylcellulose (1.5%) and injected i.p. into mice according to the method of Miller and Tainter, Proc. Soc.

[4] = tested on: blood sugar level of fasting mice (alloxanized); assay: blood sugar level of fasting alloxanized mice (Table 3); format: in vivo; conditions: for Blood Sugar Level, mean S.E., 1 h: control 327 ± 46; for Blood Sugar Level, mean S.E., 2 h: control 360 ± 50; for Blood Sugar Level, mean S.E., 3 h: control 355 ± 48.5; for Blood Sugar Level, mean S.E., 4 h: control 378 ± 51.5; for Blood Sugar Level, mean S.E., 5 h: control 377 ± 57.5
Procedure: It is possible, therefore, that saudin operates by a different mechanism than the hypoglycemic agents heretofore employed, and may for that reason find unique application in medicine. The results of comparative tests are given in the following Table 3, using mice injected intravenously with 50 mg/kg of alloxan 3 days before the tests.

[5] = tested on: plasma glucose level of alloxanized and non-alloxanized rats; assay: plasma glucose level of alloxanized and non-alloxanized rats, fasted or non-fasted (Table 2); format: in vivo, rats (male albino)
Procedure: as §1
Effect of saudin on the plasma glucose level of alloxanized and
non-alloxanized rats either fasted
or non-fasted. Blood samples were taken 2 hours after saudin injection in
tubes containing heparin.
Plasma was separated for glucose estimation.

[6] = fasting mice, 50 mg/kg alloxan i.v. 3 days before, saudin 40 mg/kg, tolbutamide 150 mg/kg

Question: For `C[C@H]1C(=O)O[C@]23CC[C@]4(C)C(=O)OC[C@@]45O[C@](c4ccoc4)(C[C@@H]1[C@@]25C)O3` [saudin, (-)-(1R,4R,5S,7R,9S,13S,16R) -7-(3-furanyl)-4,13,16-trimethyl-2,8,11,17-tetraoxapentacyclo [7.6.1.1^1,7.0^5,16.0^9,13]heptadeca-3,12-dione], which minimal effective dose [1] is on record?
Answer: > 10 mg/kg

Question: And the “hypoglycemic effect (in words)” value ([2]; non-alloxanized fed rats, two hours after injection)?
Answer: significant hypoglycemic effect

Question: And the “Plasma glucose level, S.E., 0 h” value ([2]; non-fasted, non-alloxanized rats, 0 h, control 113.63 ± 7.50, saudin S.E. 3.05)?
Answer: 109.75 mg/dL

Question: What about the “Plasma glucose level, S.E., 1 h” value ([2]; non-fasted, non-alloxanized rats, 1 h, control 115.25 ± 5.78, saudin S.E. 4.45) of the same compound?
Answer: 127.86 mg/dL

Question: And the “Plasma glucose level, S.E., 2 h” value ([2]; non-fasted, non-alloxanized rats, 2 h, control 126.75 ± 4.62, saudin S.E. 2.31*, significant vs control at P < 0.01)?
Answer: 107.00 mg/dL

Question: And the “Plasma glucose level, S.E., 3 h” value ([2]; non-fasted, non-alloxanized rats, 3 h, control 105.00 ± 3.23, saudin S.E. 3.78)?
Answer: 97.00 mg/dL

Question: And the “Plasma glucose level, S.E., 4 h” value ([2]; non-fasted, non-alloxanized rats, 4 h, control 104.73 ± 4.11, saudin S.E. 4.81)?
Answer: 98.00 mg/dL

Question: And the LD50 [3]?
Answer: 500 ± 15.8 mg/kg

Question: What about the “hypoglycemic effect in alloxanized mice (in words)” value ([4]; alloxanized mice, unlike tolbutamide) of the same compound?
Answer: does not produce a hypoglycemic effect

Question: And the “Blood Sugar Level, mean S.E., 0 h” value ([4]; fasting mice, 50 mg/kg alloxan i.v. 3 days before, saudin 40 mg/kg, tolbutamide 150 mg/kg, 0 h, control 230 ± 40)?
Answer: 222 ± 25 mg %

Question: What about the “Blood Sugar Level, mean S.E., 1 h” value [4, 6] of the same compound?
Answer: 288 ± 48.5 mg %

Question: And the “Blood Sugar Level, mean S.E., 2 h” value [4, 6]?
Answer: 346 ± 55.4 mg %

Question: What about the “Blood Sugar Level, mean S.E., 3 h” value [4, 6] of the same compound?
Answer: 342 ± 55.4 mg %

Question: What about the “Blood Sugar Level, mean S.E., 4 h” value [4, 6] of the same compound?
Answer: 355 ± 54.3 mg %

Question: What about the “Blood Sugar Level, mean S.E., 5 h” value [4, 6] of the same compound?
Answer: 443 ± 62.7 mg %

Question: And the “Plasma glucose level, S.E., alloxanized fasted, Exp.” value ([5]; alloxanized (40 mg/kg alloxan I.V. 2 days before) fasted rats, 2 hours after saudin injection, control 116.66 ± 6.64, saudin S.E. 4.45)?
Answer: 103.5 mg/dL

Question: What about the “Plasma glucose level, S.E., alloxanized non-fasted, Exp.” value ([5]; alloxanized (40 mg/kg alloxan I.V. 2 days before) non-fasted rats, 2 hours after saudin injection, control 141.2 ± 3.43, saudin S.E. 10.78) of the same compound?
Answer: 142.8 mg/dL

Question: What about the “effect on plasma glucose levels (in words)” value ([5]; fasted alloxanized and non-alloxanized rats, fed alloxanized rats) of the same compound?
Answer: did not alter the plasma glucose levels

Question: What about the “Plasma glucose level, S.E., non-alloxanized fasted, Exp.” value ([5]; non-alloxanized fasted rats, 2 hours after saudin injection, control 81.14 ± 4.31, saudin S.E. 3.05) of the same compound?
Answer: 79.86 mg/dL

Question: And the “Plasma glucose level, S.E., non-alloxanized non-fasted, Exp.” value ([5]; non-alloxanized non-fasted rats, 2 hours after saudin injection, control 132.14 ± 3.82, saudin S.E. 2.22*, significant vs control at P < 0.01)?
Answer: 111.85 mg/dL

Question: With `CCCCNC(=O)NS(=O)(=O)c1ccc(C)cc1` [tolbutamide, reference compound] as the compound, how does the “Blood Sugar Level, mean S.E., 1 h” value [4, 6] read?
Answer: 185 ± 36 mg %

Question: And the “Blood Sugar Level, mean S.E., 2 h” value [4, 6]?
Answer: 212 ± 40.4 mg %

Question: What about the “Blood Sugar Level, mean S.E., 3 h” value [4, 6] of the same compound?
Answer: 235 ± 40.8 mg %

Question: What about the “Blood Sugar Level, mean S.E., 4 h” value [4, 6] of the same compound?
Answer: 262 ± 54 mg %

Question: What about the “Blood Sugar Level, mean S.E., 5 h” value [4, 6] of the same compound?
Answer: 347 ± 64 mg %
